Values joined by “and” are separate entries in the source; they are usually repeats but may differ in a detail not shown here. Equal values may be shown once. Read-outs that look alike come from different tables or passages of the source.
Columns and labels:
[1] = Cytotoxicity in uninfected MT-4 cells; type: cell-based; details: human, uninfected MT-4 cells
[2] = test system: HIV-1 L100I; test: Anti-HIV-1 activity against mutant strain L100I in MT-4 cells; type: cell-based
[3] = test system: HIV-1 K103N; test: Anti-HIV-1 activity against mutant strain K103N in MT-4 cells; type: cell-based
[4] = test system: HIV-1 Y181C; test: Anti-HIV-1 activity against mutant strain Y181C in MT-4 cells; type: cell-based
[5] = test system: HIV-1 Y188L; test: Anti-HIV-1 activity against mutant strain Y188L in MT-4 cells; type: cell-based
[6] = test system: HIV-1 E138K; test: Anti-HIV-1 activity against mutant strain E138K in MT-4 cells; type: cell-based
[7] = test system: HIV-1 RES056 (K103N/Y181C); test: Anti-HIV-1 activity against double mutant RES056 in MT-4 cells; type: cell-based
[8] = test system: HIV-1 F227L + V106A; test: Anti-HIV-1 activity against double mutant F227L + V106A in MT-4 cells; type: cell-based
[9] = test system: HIV-2 (ROD); test: Anti-HIV activity in MT-4 cells; type: cell-based
[10] = target: WT HIV-1 RT (Human immunodeficiency virus type 1 group M subtype B, UniProt P03366); test: HIV-1 RT inhibition assay; type: biochemical; details: for RT IC50: WT HIV-1 RT, mean of at least two separate experiments
[11] = target: HIV-1 RT RNase H (Human immunodeficiency virus type 1 group M subtype B, UniProt P03366); test: HIV-1 RT RNase H inhibition; type: biochemical; details: for RNase H IC50: mean of four separate experiments
[12] = Kinetic aqueous solubility; details: kinetic from dmso stock
[13] = test system: MT-4 cells; test: Cytotoxicity in uninfected MT-4 cells; type: cell-based; details: uninfected MT-4 cell viability reduced by 50%
[14] = cited from earlier work
[15] = Plasma protein binding, dialysis equilibrium method, rat
[16] = Plasma protein binding, dialysis equilibrium method, human
[17] = Human immunodeficiency virus 1, MT4, read-out: EC50 L100I
[18] = Human immunodeficiency virus 1, MT4, read-out: EC50 K103N
[19] = Human immunodeficiency virus 1, MT4, read-out: EC50 Y181C
[20] = Human immunodeficiency virus 1, MT4, read-out: EC50 Y188L
[21] = Human immunodeficiency virus 1, MT4, read-out: EC50 E138K
[22] = Human immunodeficiency virus 1, MT4, read-out: EC50 RES056
[23] = Human immunodeficiency virus 1, MT4, read-out: EC50 F227L + V106A
[24] = Human immunodeficiency virus 2, MT4, read-out: EC50 ROD
[25] = aqueous solution at pH 2.0, pH 2, aqueous buffer
[26] = aqueous solution at pH 7.0, pH 7, aqueous buffer
[27] = aqueous solution at pH 7.4, pH 7.4, aqueous buffer
[28] = read-out: EC50 ROD, MT-4 cells, HIV-2 strain ROD

Row | SMILES | CC50 at 4 days [1] | EC50 [2, 17] [µM] | EC50 [3, 18] [µM] | EC50 [4, 19] [µM] | EC50 [5, 20] [µM] | EC50 [6, 21] [µM] | EC50 [7, 22] [µM] | EC50 [8, 23] [µM] | EC50 [9, 24] [µM] | IC50 [10] [µM] | IC50 [11] [µM] | solubility kinetic ([12]; FaSSIF) | solubility kinetic [12, 25] | solubility kinetic [12, 26] | solubility kinetic [12, 27] | further results
1 | Cc1ccnc2c1NC(=O)c1cccnc1N2C1CC1 [NVP, nevirapine, reference compound] | > 4 µg/mL | 0.46 ± 0.11 | 3.19 ± 3.9 | > 4 | > 4 | 0.057 ± 0.006 | > 4 | > 4 | – | – | – | – | – | – | – | –
2 | Cc1cc(-c2ccc(C#N)cc2)cc(C)c1Oc1nc(Nc2ccc(C#N)cc2)nc(N2CCC(O)C2)n1 (centres unmarked) [Compound 5h, 4ʹ-((4-((4-Cyanophenyl)amino)-6-(3-hydroxypyrrolidin-1-yl)-1,3,5-triazin-2-yl)-oxy)-3ʹ,5ʹ-dimethyl-[1,1ʹ-biphenyl]-4-carbonitrile] | 5.72 ± 0.08 µM | 0.0082 ± 0.0022 | 0.0036 ± 0.0009 | 0.0092 ± 0.0008 | 0.023 ± 0.006 | 0.0065 ± 0.0006 | 0.19 ± 0.05 | 0.93 ± 0.11 | 2.91 ± 0.98 | 0.161 | > 828 | 14.7 µg/mL and 29.2 µM | 3.45 µg/mL and 6.85 µM | < 0.786 µg/mL and < 1.56 µM | < 0.786 µg/mL and < 1.56 µM | activity against RNase H [11]: slight activity
3 | Cc1cc(C#N)cc(C)c1Oc1nc(Nc2ccc(C#N)cc2)nc(N)c1Br [ETR, etravirine, reference compound] | > 2 µg/mL | – | – | – | – | – | – | – | – | – | – | 13.2 µg/mL and 30.3 µM | 127 µg/mL and 291 µM | < 1 µg/mL and < 2.3 µM | < 1 µg/mL and < 2.3 µM | CC50 ([13]; listed as ETV): >2.0 µM; aqueous solubility [14]: lower than 1 μg/mL
4 | Cc1cc(-c2ccc(C#N)cc2)cc(C)c1Nc1nc(Nc2ccc(C#N)cc2)nc(N2CCN(C)CC2)n1 [Compound 6i, 4ʹ-((4-((4-Cyanophenyl)amino)-6-(4-methylpiperazin-1-yl)-1,3,5-triazin-2-yl)amino)-3ʹ,5ʹ-dimethyl-[1,1ʹ-biphenyl]-4-carbonitrile] | 3.69 ± 2.98 µM | 0.029 | 0.0074 ± 0.0021 | 0.017 ± 0.005 | 0.067 ± 0.016 | 0.01 ± 0.002 | 0.35 ± 0.08 | ≥ 3.69 | > 3.69 | 0.227 | > 1160 | 60.6 µg/mL and 117 µM | 77.3 µg/mL and 150 µM | < 0.804 µg/mL and < 1.56 µM | < 0.804 µg/mL and < 1.56 µM | –
5 | O=C1Nc2ccc(Cl)cc2[C@@](C#CC2CC2)(C(F)(F)F)O1 [EFV, reference compound] | – | – | – | – | – | – | – | – | – | – | – | – | – | – | – | CC50 [13]: >2.0 µM; EC50 ([2]; read-out: EC50 L100I, MT-4 cells, single mutant): 0.014 µM; EC50 ([3]; read-out: EC50 K103N, MT-4 cells, single mutant): 0.03 ± 0.011 µM; EC50 ([4]; read-out: EC50 Y181C, MT-4 cells, single mutant): 0.0013 ± 0.0001 µM; EC50 ([5]; read-out: EC50 Y188L, MT-4 cells, single mutant): 0.082 ± 0.007 µM; EC50 ([6]; read-out: EC50 E138K, MT-4 cells, single mutant): 0.0015 ± 0.0001 µM; EC50 ([7]; read-out: EC50 RES056, MT-4 cells, double mutant K103N/Y181C): 0.071 ± 0.036 µM; EC50 ([8]; read-out: EC50 F227L + V106A, MT-4 cells, double mutant): 0.084 ± 0.02 µM
6 | COC(=O)CNc1nc(Nc2ccc(C#N)cc2)nc(Oc2c(C)cc(-c3ccc(C#N)cc3)cc2C)n1 [Compound 5a, Methyl (4-((4ʹ-cyano-3,5-dimethyl-[1,1ʹ-biphenyl]-4-yl)oxy)-6-((4-cyanophenyl)-amino)-1,3,5-triazin-2-yl) glycinate] | – | – | – | – | – | – | – | – | – | – | – | – | – | – | – | EC50 [9, 28]: 0.56 ± 0.14 µM; CC50 [13]: > 125 µM; RT IC50 [10]: 0.047 ± 0.003 µg/mL; RNase H IC50 [11]: >600 µg/mL
7 | CC(=O)CC(c1ccccc1)c1c(O)c2ccccc2oc1=O (centres unmarked) [Warfarin, reference compound] | – | – | – | – | – | – | – | – | – | – | – | – | – | – | – | recovery at 2 μmol/L [15]: 99%; recovery at 2 μmol/L [16]: 86%
8 | COC(=O)CNc1nc(Nc2ccc(C#N)cc2)nc(Nc2c(C)cc(-c3ccc(C#N)cc3)cc2C)n1 [Compound 6b, Methyl (4-((4ʹ-cyano-3,5-dimethyl-[1,1ʹ-biphenyl]-4-yl)amino)-6-((4-cyanophenyl)amino)-1,3,5-triazin-2-yl) glycinate] | – | – | – | – | – | – | – | – | – | – | – | – | – | – | – | EC50 [9, 28]: 21.5 µM; CC50 [13]: > 125 µM; RT IC50 [10]: 0.033 ± 0.004 µg/mL; RNase H IC50 [11]: >600 µg/mL
9 | Cc1cc(-c2ccc(C#N)cc2)cc(C)c1Nc1nc(NCC2CCOC2)nc(Nc2ccc(C#N)cc2)n1 (centres unmarked) [Compound 6e, 4ʹ-((4-((4-Cyanophenyl)amino)-6-(((tetrahydrofuran-3-yl)methyl)amino)-1,3,5-triazin-2-yl)amino)-3ʹ,5ʹ-dimethyl-[1,1ʹ-biphenyl]-4-carbonitrile] | > 125 µM | 0.022 ± 0.006 | 0.0034 ± 0.0005 | 0.011 ± 0.001 | 0.05 ± 0.008 | 0.0053 ± 0.0033 | 0.06 ± 0.007 | ≥ 16.4 | 7.91 ± 5.7 | 0.106 | > 1160 | 60.5 µg/mL and 117 µM | 12.1 µg/mL and 23.4 µM | < 0.806 µg/mL and < 1.56 µM | < 0.806 µg/mL and < 1.56 µM | –
10 | Cc1cc(-c2ccc(C#N)cc2)cc(C)c1Nc1nc(Nc2ccc(C#N)cc2)nc(N2CCC(O)C2)n1 (centres unmarked) [Compound 6k, 4ʹ-((4-((4-Cyanophenyl)amino)-6-(3-hydroxypyrrolidin-1-yl)-1,3,5-triazin-2-yl)-amino)-3ʹ,5ʹ-dimethyl-[1,1ʹ-biphenyl]-4-carbonitrile] | 4.54 ± 2.56 µM | 0.0041 ± 0.0005 | 0.0023 ± 0.0005 | 0.003 ± 0.0002 | 0.01 ± 0.003 | 0.0035 ± 0.0008 | 0.06 | 1.04 | > 4.54 | 0.103 | > 1190 | 53.4 µg/mL and 104 µM | 53.7 µg/mL and 104 µM | < 0.784 µg/mL and < 1.56 µM | < 0.784 µg/mL and < 1.56 µM | –
11 | Cc1cc(-c2ccc(C#N)cc2)cc(C)c1Nc1nc(NCC2CCOCC2)nc(Nc2ccc(C#N)cc2)n1 [Compound 6d, 4ʹ-((4-((4-Cyanophenyl)amino)-6-(((tetrahydro-2H-pyran-4-yl)methyl)amino)-1,3,5-triazin-2-yl)amino)-3ʹ,5ʹ-dimethyl-[1,1ʹ-biphenyl]-4-carbonitrile] | > 125 µM | – | – | – | – | – | – | – | 13.8 | 0.241 | > 1130 | – | – | – | – | –
